One may read the pIC50 as the IC50 on a negative log10 scale, so that one unit is a factor of ten. As usually defined, the pKi is −log10 of the Ki, conventionally taken in molar units.

Consider 17 compounds from ChEMBL document CHEMBL1909046, “DrugMatrix in vitro pharmacology data”.

Molecules are shown by their SMILES. pIC50, pKi: −log10 of the molar value.

In experiment [1] the target is 5-hydroxytryptamine receptor 4 (Cavia porcellus, UniProt O70528). It counts as cell membranes, Dunkin-Hartley, Striatum, Membrane. Also: in other assays of this panel Not Active means under 50% inhibition at 10 µM.
In experiment [2] the target is Vascular endothelial growth factor receptor 1 (Homo sapiens, UniProt P17948). It counts as cell-based. The following applies: huvec. Also: in other assays of this panel Not Active means under 50% inhibition at 10 µM.
Experiment [3] is described as follows: DRUGMATRIX: Glutamate, NMDA, Phencyclidine radioligand binding (ligand: [3H] TCP). It counts as cell membranes, Rattus norvegicus, Wistar, Cerebral cortex, Membrane. The following applies: Not Active = under 50% inhibition at 10 µM.
The nature of experiment [4]: DRUGMATRIX: Imidazoline I2, Central radioligand binding (ligand: [3H] Idazoxan). It counts as cell membranes, Rattus norvegicus, Wistar, Cerebral cortex, Membrane. The following applies: Not Active = under 50% inhibition at 10 µM; for pIC50: read-out: IC50; for pKi: read-out: Ki.
The target in experiment [5] is Kappa-type opioid receptor (Homo sapiens, UniProt P41145). In words: DRUGMATRIX: Opiate kappa (OP2, KOP) radioligand binding (ligand: [3H] Diprenorphine). Format: cell membranes, HEK293, Membrane. The following applies: hek293; Not Active = under 50% inhibition at 10 µM.
In the next experiment the target is T1, Interstitial collagenase (Homo sapiens, UniProt P03956).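 Also: MMP-1 enzyme inhibition assay using a peptide substrate; in other assays of this panel Not Active means under 50% inhibition at 10 µM.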
T1 sequence (P03956 whole entry): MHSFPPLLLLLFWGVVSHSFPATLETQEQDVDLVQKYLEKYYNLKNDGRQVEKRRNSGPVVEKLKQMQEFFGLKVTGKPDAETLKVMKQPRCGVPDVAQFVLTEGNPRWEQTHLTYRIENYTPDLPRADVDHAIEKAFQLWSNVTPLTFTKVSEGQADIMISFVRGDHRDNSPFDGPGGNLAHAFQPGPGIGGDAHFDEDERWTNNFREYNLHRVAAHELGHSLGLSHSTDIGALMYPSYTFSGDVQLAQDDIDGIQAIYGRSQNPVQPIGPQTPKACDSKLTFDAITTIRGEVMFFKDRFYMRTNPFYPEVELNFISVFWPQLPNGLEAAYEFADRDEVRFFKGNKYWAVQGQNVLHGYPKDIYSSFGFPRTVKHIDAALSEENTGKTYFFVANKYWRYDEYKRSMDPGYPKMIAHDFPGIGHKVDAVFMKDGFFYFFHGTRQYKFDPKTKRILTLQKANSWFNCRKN
In words: biochemical. Format: tissue-based, Rheumatoid synovial fibroblasts.

Experiment [6] addresses Matrix metalloproteinase-9 (Homo sapiens, UniProt P14780). As to the kind of experiment: biochemical. Format: cell-based.

Sequence of 5-hydroxytryptamine receptor 4 (O70528 whole entry): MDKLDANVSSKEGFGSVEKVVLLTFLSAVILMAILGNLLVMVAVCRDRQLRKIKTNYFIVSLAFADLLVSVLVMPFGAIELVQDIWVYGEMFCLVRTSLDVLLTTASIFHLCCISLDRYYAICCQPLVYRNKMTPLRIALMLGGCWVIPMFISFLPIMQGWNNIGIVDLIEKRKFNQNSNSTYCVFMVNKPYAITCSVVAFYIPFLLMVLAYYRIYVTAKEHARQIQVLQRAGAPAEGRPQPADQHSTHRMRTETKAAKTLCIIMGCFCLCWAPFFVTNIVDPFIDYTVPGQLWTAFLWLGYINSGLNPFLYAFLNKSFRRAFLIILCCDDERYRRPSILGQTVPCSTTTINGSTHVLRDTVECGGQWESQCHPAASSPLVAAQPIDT
Sequence of Kappa-type opioid receptor (P41145 whole entry): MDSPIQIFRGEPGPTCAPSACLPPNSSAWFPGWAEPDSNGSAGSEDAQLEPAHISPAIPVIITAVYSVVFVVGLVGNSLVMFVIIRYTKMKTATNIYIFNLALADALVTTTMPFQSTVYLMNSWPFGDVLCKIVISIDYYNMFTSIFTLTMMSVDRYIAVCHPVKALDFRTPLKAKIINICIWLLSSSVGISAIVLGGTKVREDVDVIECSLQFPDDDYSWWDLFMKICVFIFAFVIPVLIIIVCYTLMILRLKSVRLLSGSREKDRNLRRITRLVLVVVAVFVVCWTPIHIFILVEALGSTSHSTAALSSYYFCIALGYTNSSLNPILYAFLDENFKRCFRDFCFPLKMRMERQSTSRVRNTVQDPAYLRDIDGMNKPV
Sequence of Vascular endothelial growth factor receptor 1 (P17948 whole entry): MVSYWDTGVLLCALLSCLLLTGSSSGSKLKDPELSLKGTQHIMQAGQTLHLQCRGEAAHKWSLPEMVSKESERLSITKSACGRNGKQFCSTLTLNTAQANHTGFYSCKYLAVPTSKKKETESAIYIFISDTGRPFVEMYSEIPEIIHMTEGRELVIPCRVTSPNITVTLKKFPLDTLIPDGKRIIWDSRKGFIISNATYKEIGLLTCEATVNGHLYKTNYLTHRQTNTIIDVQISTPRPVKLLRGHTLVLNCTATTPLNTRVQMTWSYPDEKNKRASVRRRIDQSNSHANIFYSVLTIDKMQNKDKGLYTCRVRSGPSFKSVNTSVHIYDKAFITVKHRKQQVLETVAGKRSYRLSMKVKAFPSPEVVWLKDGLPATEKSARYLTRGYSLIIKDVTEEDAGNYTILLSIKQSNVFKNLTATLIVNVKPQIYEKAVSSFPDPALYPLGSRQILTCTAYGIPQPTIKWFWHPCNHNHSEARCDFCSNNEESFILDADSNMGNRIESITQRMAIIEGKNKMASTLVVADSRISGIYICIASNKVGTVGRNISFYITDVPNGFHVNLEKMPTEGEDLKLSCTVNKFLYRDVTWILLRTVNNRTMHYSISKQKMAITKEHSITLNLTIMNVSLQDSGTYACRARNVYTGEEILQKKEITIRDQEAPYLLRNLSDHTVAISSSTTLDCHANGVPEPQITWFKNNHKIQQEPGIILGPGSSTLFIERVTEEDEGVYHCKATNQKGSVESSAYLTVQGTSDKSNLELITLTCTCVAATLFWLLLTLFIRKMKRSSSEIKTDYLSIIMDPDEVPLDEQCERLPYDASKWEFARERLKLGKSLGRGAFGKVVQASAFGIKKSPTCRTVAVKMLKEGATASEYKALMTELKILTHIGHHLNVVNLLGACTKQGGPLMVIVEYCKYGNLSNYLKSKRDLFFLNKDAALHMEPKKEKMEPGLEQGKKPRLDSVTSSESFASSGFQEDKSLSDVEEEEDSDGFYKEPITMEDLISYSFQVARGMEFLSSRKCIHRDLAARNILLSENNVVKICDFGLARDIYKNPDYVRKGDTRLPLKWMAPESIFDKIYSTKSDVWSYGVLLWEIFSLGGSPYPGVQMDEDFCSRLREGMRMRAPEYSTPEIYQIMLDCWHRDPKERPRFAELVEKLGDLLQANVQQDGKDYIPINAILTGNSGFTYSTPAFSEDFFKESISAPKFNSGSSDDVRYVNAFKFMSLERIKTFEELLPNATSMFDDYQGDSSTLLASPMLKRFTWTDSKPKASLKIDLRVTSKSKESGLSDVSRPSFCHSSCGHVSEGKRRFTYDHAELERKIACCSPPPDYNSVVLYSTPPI
Sequence of Matrix metalloproteinase-9 (P14780 whole entry): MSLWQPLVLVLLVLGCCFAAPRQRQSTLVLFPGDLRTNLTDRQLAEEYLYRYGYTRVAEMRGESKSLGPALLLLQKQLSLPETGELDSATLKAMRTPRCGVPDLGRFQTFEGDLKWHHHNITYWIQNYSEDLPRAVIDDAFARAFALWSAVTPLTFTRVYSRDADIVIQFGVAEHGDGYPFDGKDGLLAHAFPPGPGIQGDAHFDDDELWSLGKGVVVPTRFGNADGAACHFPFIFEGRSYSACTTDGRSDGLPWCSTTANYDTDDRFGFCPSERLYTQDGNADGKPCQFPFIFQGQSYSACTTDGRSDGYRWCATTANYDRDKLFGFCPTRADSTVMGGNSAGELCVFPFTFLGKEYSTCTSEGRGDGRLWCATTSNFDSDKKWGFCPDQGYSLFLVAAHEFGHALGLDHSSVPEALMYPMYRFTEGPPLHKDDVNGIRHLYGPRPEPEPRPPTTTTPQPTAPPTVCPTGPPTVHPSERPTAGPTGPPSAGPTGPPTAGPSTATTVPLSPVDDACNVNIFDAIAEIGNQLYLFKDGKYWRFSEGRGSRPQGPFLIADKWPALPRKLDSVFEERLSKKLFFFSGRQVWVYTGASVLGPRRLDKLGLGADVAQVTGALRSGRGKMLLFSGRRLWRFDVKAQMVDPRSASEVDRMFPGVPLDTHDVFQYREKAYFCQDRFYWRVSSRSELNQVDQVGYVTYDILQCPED

With `C[C@]12CCC(=O)C=C1CC[C@@H]1[C@@H]2CC[C@@]2(C)[C@H]1CC[C@]2(C)O` [METHYLTESTOSTERONE], the IC50 result (in experiment [1]; in experiment [2]; in experiment [3]; in experiment [4]; in experiment [5]; against Interstitial collagenase) was “Not Active” each time. In experiment [6], the IC50 entry is on record as “Not Active”. For the same compound, the Ki result in experiment [3] and in experiment [4] was “Not Active” throughout.
On to `O=C1CC[C@@H](N2C(=O)c3ccccc3C2=O)C(=O)N1`, for which the IC50 entry (in experiment [1]; in experiment [2]; in experiment [3]; in experiment [4]; in experiment [5]; at Interstitial collagenase) was “Not Active” each time. In experiment [6], the IC50 entry is “Not Active”. The Ki result in experiment [3] and in experiment [4] was “Not Active” in each case.
Consider `Cc1c(O)c(=O)ccn1C` [DEFERIPRONE], for which the IC50 entry (in experiment [1]; in experiment [2]; in experiment [3]; in experiment [4]; in experiment [5]; on Interstitial collagenase) was “Not Active” each time. Also, in experiment [6], the IC50 result is recorded as “Not Active”. The Ki entry in experiment [3] and in experiment [4] was “Not Active” each time.
On to `CCOc1ccc(NC(C)=O)cc1` [PHENACETIN], for which the IC50 entry (in experiment [1]; in experiment [2]; in experiment [3]; in experiment [4]; in experiment [5]; against Interstitial collagenase) was “Not Active” each time. The IC50 result in experiment [6] is “Not Active”. The Ki result in experiment [3] and in experiment [4] was “Not Active” throughout.
Consider `C[C@]12CC[C@@H]3c4ccc(O)cc4CC[C@H]3[C@@H]1CCC2=O` [ESTRONE], for which the IC50 entry (in experiment [1]; in experiment [2]; in experiment [3]; in experiment [4]; in experiment [5]; on Interstitial collagenase) was “Not Active” in each case. In experiment [6], the IC50 result was “Not Active”. Further, the Ki entry in experiment [3] and in experiment [4] was “Not Active” each time.
In the case of `NC1=NC(=O)C(c2ccccc2)O1` (stereo not drawn) [PEMOLINE], the IC50 entry (in experiment [1]; in experiment [2]; in experiment [3]; in experiment [4]; in experiment [5]; against Interstitial collagenase) was “Not Active” in each case. Moreover, in experiment [6], the IC50 result is given as “Not Active”. In addition, the Ki result in experiment [3] and in experiment [4] was “Not Active” each time.
With `CN(C)c1nc(N(C)C)nc(N(C)C)n1` [ALTRETAMINE], the IC50 result (in experiment [1]; in experiment [2]; in experiment [3]; in experiment [4]; in experiment [5]; on Interstitial collagenase) was “Not Active” in each case. Besides, the IC50 entry in experiment [6] is “Not Active”. The Ki entry in experiment [3] and in experiment [4] was “Not Active” throughout.
As for `CCn1cc(C(=O)O)c(=O)c2cc(F)c(N3CCNCC3)cc21` [NORFLOXACIN], the IC50 result (in experiment [1]; in experiment [2]; in experiment [3]; in experiment [4]; in experiment [5]; on Interstitial collagenase) was “Not Active” each time. Also, the IC50 result in experiment [6] was “Not Active”. Also, the Ki entry in experiment [3] and in experiment [4] was “Not Active” throughout.
`CCCN1C[C@H](CSC)C[C@@H]2c3cccc4[nH]cc(c34)C[C@H]21` [PERGOLIDE]: the IC50 entry (in experiment [1]; in experiment [2]; in experiment [3]; in experiment [5]; on Interstitial collagenase; in experiment [6]) was “Not Active” in each case. Besides, the Ki entry in experiment [3] was “Not Active”. Besides, the pIC50 in experiment [4] is 5.51. In addition, the pKi in experiment [4] is 5.69.
For `Clc1cccc(Cl)c1NC1=NCCN1` [CLONIDINE], the IC50 entry (in experiment [1]; in experiment [2]; in experiment [3]; in experiment [5]; at Interstitial collagenase; in experiment [6]) was “Not Active” each time. Besides, in experiment [3], the Ki entry is on record as “Not Active”. The pIC50 in experiment [4] was 7.19. The pKi in experiment [4] is 7.37.
Regarding `C=C(C)C1(O)OC(=O)C=C1OC` (stereo not drawn) [PENICILLIC ACID], the IC50 result (in experiment [1]; in experiment [2]; in experiment [3]; in experiment [4]; in experiment [5]; on Interstitial collagenase) was “Not Active” in each case. Besides, the IC50 result in experiment [6] was “Not Active”. The Ki entry in experiment [3] and in experiment [4] was “Not Active” each time.
On to `C[C@H](CS)C(=O)N1CCC[C@H]1C(=O)O` [CAPTOPRIL], for which the IC50 entry (in experiment [1]; in experiment [2]; in experiment [3]; in experiment [4]; in experiment [5]; at Interstitial collagenase) was “Not Active” each time. The IC50 result in experiment [6] is listed as “Not Active”. The Ki result in experiment [3] and in experiment [4] was “Not Active” throughout.
As to `C[C@H]1O[C@@H](O[C@H]2[C@@H](O)C[C@H](O[C@H]3[C@@H](O)C[C@H](O[C@H]4CC[C@@]5(C)[C@H](CC[C@@H]6[C@@H]5C[C@@H](O)[C@]5(C)[C@@H](C7=CC(=O)OC7)CC[C@]65O)C4)O[C@@H]3C)O[C@@H]2C)C[C@H](O)[C@@H]1O` [DIGOXIN], the IC50 result (in experiment [1]; in experiment [2]; in experiment [3]; in experiment [4]; in experiment [5]; against Interstitial collagenase) was “Not Active” throughout. Also, the IC50 result in experiment [6] was “Not Active”. For the same compound, the Ki entry in experiment [3] and in experiment [4] was “Not Active” each time.
For `CN(C)C(=O)Oc1cc(OC(=O)N(C)C)cc(C(O)CNC(C)(C)C)c1` (stereo not drawn) [BAMBUTEROL], the IC50 entry (in experiment [1]; in experiment [2]; in experiment [3]; in experiment [4]; in experiment [5]; at Interstitial collagenase) was “Not Active” throughout. In addition, the IC50 result in experiment [6] is “Not Active”. Also, the Ki result in experiment [3] and in experiment [4] was “Not Active” in each case.
Regarding `CC(C)[C@H]1C(=O)N2CCC[C@H]2[C@]2(O)O[C@](NC(=O)[C@@H]3C=C4c5cccc6[nH]cc(c56)C[C@H]4N(C)C3)(C(C)C)C(=O)N12` [ERGOCORNINE], the IC50 result (in experiment [1]; in experiment [2]; in experiment [3]; in experiment [5]; against Interstitial collagenase; in experiment [6]) was “Not Active” each time. In experiment [3], the Ki result is given as “Not Active”. The pIC50 in experiment [4] was 8.35. Further, the negative logarithm of the Ki (pKi) in experiment [4] is 8.52.
As for `CN(C)CCCN1c2ccccc2Sc2ccccc21` [PROMAZINE], the IC50 entry (in experiment [1]; in experiment [2]; in experiment [3]; in experiment [5]; at Interstitial collagenase; in experiment [6]) was “Not Active” each time. Besides, the Ki entry in experiment [3] was “Not Active”. The pIC50 in experiment [4] was 5.96. For the same compound, the pKi in experiment [4] was 6.14.
Regarding `C[C@](N)(Cc1ccc(O)c(O)c1)C(=O)O` [METHYLDOPA], the IC50 result (in experiment [1]; in experiment [2]; in experiment [3]; in experiment [4]; in experiment [5]; on Interstitial collagenase) was “Not Active” throughout. The IC50 entry in experiment [6] is listed as “Not Active”. Moreover, the Ki result in experiment [3] and in experiment [4] was “Not Active” each time.
